We go through three molecules from patent publication US8680059B2, “Oligopeptide acetate and formulations thereof” (Biotempt B.V., priority 1998, dated 2014).

The nature of series [1]: Phase I human trial: plasma pharmacokinetics of EA-230. The class given is in vivo. The note with it: for tmax: 15-min infusion; for AUC(0-t) / Cmax: plasma, iv. From the text: (§1) Part 1: A Phase I, double blind, randomized, single dose, placebo controlled, dose escalation study with 4 groups of 8 subjects (Groups 1-4). In each group 6 subjects were randomized to active medication and 2 to placebo. The first group received a single intravenous injection of EA-230 or placebo. After all subjects had completed Day 7 assessments, the safety review board decided on continuation of the study until the maximum tolerated dose had been assessed or the highest dose. Placebo subjects were pooled for analysis.
(§2) Part 2: A Phase I, double blind, randomized, single dose, placebo controlled study. The second part consisted of 1 group of 12 subjects (Group 5). All twelve subjects received LPS (4 ng/kg E. coli EC6) as a 2-minute injection, 30 minutes prior to EA-230 administration. […] Cytokines profiles were assessed to establish the effect of EA-230 on inflammatory parameters.
Plasma concentration time profiles of EA-230 were analyzed. Pharmacokinetic parameters AUC, clearance, volume of distribution and elimination half-life were obtained for EA-230.
PK samples were collected pre-dose and from 5 minutes to 4 hours after the start of study drug administration.

For series [2], the system named is healthy male subjects. Put plainly: Phase I human trial: safety. It counts as in vivo.
Description: as §1, §2
Adverse events (AEs), vital signs, ECG, hematology, clinical chemistry, and urinalysis.
Incidence of treatment emergent AEs and treatment emergent treatment related AEs were summarized. Hematological, biochemical, urinalysis parameters, vital signs and their changes from baseline were summarized over time using n, mean, standard deviation, median and range.

The subject of series [3] is mice, 25 minutes renal ischemia/reperfusion. Put plainly: Mouse renal ischemia reperfusion test (mortality, BUN/serum urea). It counts as in vivo. Details: BUN, mean / Urea level: unit not given here. How it is done: SEQ ID NO:2 was tested and compared with PBS (control) in a double blind animal study for the peptide's relative ability to aid recovery in a mouse renal ischemia reperfusion test. In this test, the mice were anesthetized, and one kidney from each mouse was removed. The other kidney was tied off for 25 minutes, and the serum urea levels were allowed to increase. Both before and after tying off, the peptide was administered to thirty (30) different mice (5 mg oligopeptide/kg body mass intravenously), after which, the mortality of the mice was determined for each oligopeptide as well as was the BUN concentration at two hours, 24 hours and 72 hours.
Under inhalation anesthesia, the left kidney with its artery and vein was isolated and occluded for 25 minutes using a microvascular clamp. During surgery animals were placed on a heating path to maintain body temperature at 37° C. Five minutes before placing the clamp, and 5 minutes before releasing the clamp, 5 mg/kg of peptide, dissolved in 0.1 mL of sterile saline, was administered intravenously. After reperfusion of the left kidney the right kidney was removed. Kidney function was assessed by measuring blood urea nitrogen before clamping, and at 2, 24, and 72 hours after reperfusion.
To determine dose-response relationships SEQ ID NO:2, was tested in a dose-response manner in the mice test as described above. Peptides were tested at 0.3, 1, 3, 10 and 30 mg/kg dosages given as described in Example I. Serum urea levels are presented in Table 3.

The subject of series [4] is BALB/c mice injected i.p. with LPS (E. coli 026:B6). Put plainly: LPS-induced septic shock (endotoxin model) in BALB/c mice. The note with it: for Survival %: group of 6, 48 hrs. It counts as in vivo, mouse. Details: key to Sickness score of individual mouse: 0: No abnormalities.; 1: Percolated fur, but no detectable behavior differences compared to normal mice.; 2: Percolated fur, huddle reflex, responds to stimuli (such as tap on cage), just as active during handling as healthy mouse.; 3: Slower response to tap on cage, passive or docile when handled, but still curious when alone in a new setting.; 4: Lack of curiosity, little or no response to stimuli, quite immobile.; 5: Labored breathing, inability or slow to self-right after being rolled onto back (moribund, sacrificed).; Dead. How it is done:
Mice used in sepsis or septic shock experiments: Female BALB/c mice of 8-12 weeks of age were used for all experiments. The animals were bred in our facility under specific pathogen-free conditions according to the protocols described in the Report of European Laboratory Animal Science Associations (FELASA) Working group on Animal Health (Laboratory Animals 28: 1-24, 1994).
Injection protocols: For the endotoxin model, BALB/c mice were injected i.p. with 150-300 μg LPS (E. coli 026:B6; Difco Lab., Detroit, Mich., USA). Control groups were treated with PBS i.p. only. To test the effect of peptides, they were dissolved in PBS and injected i.p. at predetermined points in time after LPS treatment.
Mice were scored for sickness severity using the following measurement scheme: • 0 No abnormalities. • 1 Percolated fur, but no detectable behavior differences compared to normal mice. • 2 Percolated fur, huddle reflex, responds to stimuli (such as tap on cage), just as active during handling as healthy mouse. • 3 Slower response to tap on cage, passive or docile when handled, but still curious when alone in a new setting. • 4 Lack of curiosity, little or no response to stimuli, quite immobile. • 5 Labored breathing, inability or slow to self-right after being rolled onto back (moribund, sacrificed). • D Dead […]
A comparative trial was set up to compare peptide MTR and SEQ ID NO:2. The comparative trial comprised 6 groups of 6 animals; two groups (1A and 1B) receiving placebo (PBS), one group (2) peptide MTR (source Pepscan, Lelystad, NL), one group (3) receiving peptide MTR (source Ansynth), one group (4) receiving peptide SEQ ID NO:2 (source Pepscan) and one group peptide SEQ ID NO:2 (source Ansynth). Peptide/placebo in these groups was administered 2 hours after LPS. LPS (source) was used at 10-11 mg/kg. Sickness scores were done at 0, 2, 22 26 42 and 48 hours after LPS injection.

Setting [5] is: 1 mg/kg, 1 mg/kg i.v. 2-min infusion, N = 6, arithmetic mean ± SD.
[6] abbreviates: 3 mg/kg, 3 mg/kg i.v. 2-min infusion, N = 6, arithmetic mean ± SD.
The mark [7] stands for this setting: 10 mg/kg, 10 mg/kg i.v. 15-min infusion, N = 6, arithmetic mean ± SD.
Setting [8] is: 10 mg/kg, Part 2, LPS + 10 mg/kg i.v. 15-min infusion, arithmetic mean ± SD.
Setting [9] is: 30 mg/kg, 30 mg/kg i.v. 15-min infusion, N = 6, arithmetic mean ± SD.

Where “and” joins values, the source holds several entries; their conditions need not be identical. Identical values can stand only once. Peptide text beside a SMILES is read from it.

Turning to `CC(C)[C@H](NC(=O)CNC(=O)[C@H](CCC(N)=O)NC(=O)[C@H](C)N)C(=O)O` [EA-230, H-Ala-Gln-Gly-Val-OH.xAcOH] (H-AQGV-OH), the tmax is 5 minutes before the end of infusion in series [1] (10 mg/kg EA-230 alone) and 10 minutes before the end of infusion in series [1] (most subjects, 10 mg/kg EA-230 with LPS challenge). The “time by which average plasma concentrations were below LOQ” value in series [1] (1-mg/kg dose) is ≤ 15 min; in series [1] (30-mg/kg dose, after dosing) it was ≤ 120 min. Also, the AUC(0-t) is 2.5 ng·h/mL in series [1] (setting [5]); 11.8 ng·h/mL in series [1] (setting [6]); 217 ng·h/mL in series [1] (setting [7]); 303 ng·h/mL in series [1] (setting [8]); 595 ng·h/mL in series [1] (setting [9]). For the same molecule, the Cmax stood at 32.5 ng/mL in series [1] (setting [5]); 132 ± 76.4 ng/mL in series [1] (setting [6]); 1600 ± 1130 ng/mL in series [1] (setting [7]); 1710 ± 1330 ng/mL in series [1] (setting [8]); 3220 ± 1080 ng/mL in series [1] (setting [9]). Further, the elimination from plasma entry in series [1] (single i.v. dose 1-30 mg/kg) was “rapidly eliminated”. Besides, the “AE occurrence, placebo vs active subjects” value in series [2] is “No difference in AE occurrence”. Further, the “safety and tolerability of a single dose” value in series [2] (1 mg/kg to 30 mg/kg i.v.) is “safe and well tolerated”. In series [2] (escalating dose part 1-30 mg/kg), the “number or intensity of AEs with the dose” value was “No increase in the number or intensity of AEs”. Also, in series [2] (whole study), the QTc result is “No abnormal QTc”. Besides, in series [2] (whole study), the “serious adverse events (SAE)” value is reported as “No SAE occurred”.
Regarding AQG, the Urea level was found to be 38.4 in series [3] (0.3 mg/kg, 24 h); 30.4 in series [3] (0.3 mg/kg, 72 h); 48.4 in series [3] (1.0 mg/kg, 24 h); 38.4 in series [3] (1.0 mg/kg, 72 h); 39.3 in series [3] (3.0 mg/kg, 24 h); 40.3 in series [3] (3.0 mg/kg, 72 h). The Urea level worked out at 46.8 in series [3] (10.0 mg/kg, 24 h); 25.8 in series [3] (10.0 mg/kg, 72 h); 52.8 in series [3] (30.0 mg/kg, 24 h); 58.9 in series [3] (30.0 mg/kg, 72 h).
MTR: the “Sickness score of individual mouse” value is 0 in series [4] (source Ansynth (#Ansynth 12/46) 2 hours after LPS 10-11 mg/kg, 0 hrs (before peptide)); 2 in series [4] (source Ansynth (#Ansynth 12/46) 2 hours after LPS 10-11 mg/kg, 2 hrs (at peptide administration)); 2 (4×) and 4 and 3 in series [4] (source Ansynth (#Ansynth 12/46) 2 hours after LPS 10-11 mg/kg, 22 hrs); 1 and 2 (2×) and 5 and 4 and 3 in series [4] (source Ansynth (#Ansynth 12/46) 2 hours after LPS 10-11 mg/kg, 26 hrs); 1 and 2 (2×) and dead and 4 and 5 in series [4] (source Ansynth (#Ansynth 12/46) 2 hours after LPS 10-11 mg/kg, 42 hrs); 1 (2×) and dead (2×) and 2 in series [4] (source Ansynth (#Ansynth 12/46) 2 hours after LPS 10-11 mg/kg, 48 hrs). Also, the “Sickness score of individual mouse” value in series [4] (source Pepscan (#970/#971) 5 mg/kg 2 hours after LPS 10-11 mg/kg, 0 hrs (before peptide)) was 0; in series [4] (source Pepscan (#970/#971) 5 mg/kg 2 hours after LPS 10-11 mg/kg, 2 hrs (at peptide administration)), 2; in series [4] (source Pepscan (#970/#971) 5 mg/kg 2 hours after LPS 10-11 mg/kg, 22 hrs) it was “dead and 3 and 2 (3×) and 4”; in series [4] (source Pepscan (#970/#971) 5 mg/kg 2 hours after LPS 10-11 mg/kg, 26 hrs) it was 3 and 2 (3×) and 5; in series [4] (source Pepscan (#970/#971) 5 mg/kg 2 hours after LPS 10-11 mg/kg, 42 hrs) it was 5 and 2 (2×) and 4 and dead; in series [4] (source Pepscan (#970/#971) 5 mg/kg 2 hours after LPS 10-11 mg/kg, 48 hrs) it was “dead (2×) and 2 (2×)”. Moreover, the Survival % in series [4] (source Ansynth (#Ansynth 12/46) 2 hours after LPS 10-11 mg/kg) is reported as 50%; in series [4] (source Pepscan (#970/#971) 5 mg/kg 2 hours after LPS 10-11 mg/kg), 33%.
